{
  "source": "ChEMBL document CHEMBL1201862",
  "about": "“PubChem BioAssay data set” (2004)",
  "key": {"[1]": {"assay": "fluconazole-exposed Candida albicans growth modulators – fluorescence, retest, confirmation (AID 2467)", "assay_type": "functional, cell-based"}, "[2]": {"assay": "NIH-3T3 fibroblast cytotoxicity, dose response, cytotoxicity control, cell-based, fluorescence, Alamar Blue, secondary assay (AID 2327);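 further: NIH-3T3 mouse fibroblasts cultured with fluconazole at 8 µg/mL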", "assay_type": "functional"}, "[3]": {"molecular_target": "T1, Streptokinase A (Streptococcus pyogenes serotype M1, UniProt P10520)", "T1 sequence (P10520 whole entry)": "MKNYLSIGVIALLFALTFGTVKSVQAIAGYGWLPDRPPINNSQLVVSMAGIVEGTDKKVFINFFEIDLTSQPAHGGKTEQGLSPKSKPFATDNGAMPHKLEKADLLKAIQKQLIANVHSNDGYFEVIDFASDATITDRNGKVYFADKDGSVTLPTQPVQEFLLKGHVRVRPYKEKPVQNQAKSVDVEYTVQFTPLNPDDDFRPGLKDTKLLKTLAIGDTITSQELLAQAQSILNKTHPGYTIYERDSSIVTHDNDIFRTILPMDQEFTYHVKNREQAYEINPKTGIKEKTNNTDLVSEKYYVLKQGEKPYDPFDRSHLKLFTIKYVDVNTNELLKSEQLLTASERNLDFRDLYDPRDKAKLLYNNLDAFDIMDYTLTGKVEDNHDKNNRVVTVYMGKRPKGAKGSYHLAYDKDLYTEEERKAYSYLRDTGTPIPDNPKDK", "assay": "viability-normalized secreted streptokinase activity reduction – plasminogen activation absorbance, OD405, dose response (AID 1914)", "assay_type": "functional, Streptococcus pyogenes M1 GAS"}, "[4]": {"test_system": "Streptococcus sp. 'group A'", "assay": "Streptococcus pyogenes SK(-)GAS viability under kanamycin – luminescence, BacTiterGlo, confirmation, counter-screen for streptokinase expression inhibitor project, dose response (AID 1900)", "assay_type": "functional, organism-based"}, "[5]": {"test_system": "Streptococcus", "assay": "GAS UMAA2166 growth inhibition – luminescence, BacTiterGlo, counter-screen for streptokinase expression inhibitor project, dose response (AID 1915);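 further: potency for reduction of bacterial viability or growth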", "assay_type": "functional, organism-based"}, "[6]": {"molecular_target": "T2, Fatty acid synthase (Homo sapiens, UniProt P49327)", "T2 sequence (P49327 whole entry)": "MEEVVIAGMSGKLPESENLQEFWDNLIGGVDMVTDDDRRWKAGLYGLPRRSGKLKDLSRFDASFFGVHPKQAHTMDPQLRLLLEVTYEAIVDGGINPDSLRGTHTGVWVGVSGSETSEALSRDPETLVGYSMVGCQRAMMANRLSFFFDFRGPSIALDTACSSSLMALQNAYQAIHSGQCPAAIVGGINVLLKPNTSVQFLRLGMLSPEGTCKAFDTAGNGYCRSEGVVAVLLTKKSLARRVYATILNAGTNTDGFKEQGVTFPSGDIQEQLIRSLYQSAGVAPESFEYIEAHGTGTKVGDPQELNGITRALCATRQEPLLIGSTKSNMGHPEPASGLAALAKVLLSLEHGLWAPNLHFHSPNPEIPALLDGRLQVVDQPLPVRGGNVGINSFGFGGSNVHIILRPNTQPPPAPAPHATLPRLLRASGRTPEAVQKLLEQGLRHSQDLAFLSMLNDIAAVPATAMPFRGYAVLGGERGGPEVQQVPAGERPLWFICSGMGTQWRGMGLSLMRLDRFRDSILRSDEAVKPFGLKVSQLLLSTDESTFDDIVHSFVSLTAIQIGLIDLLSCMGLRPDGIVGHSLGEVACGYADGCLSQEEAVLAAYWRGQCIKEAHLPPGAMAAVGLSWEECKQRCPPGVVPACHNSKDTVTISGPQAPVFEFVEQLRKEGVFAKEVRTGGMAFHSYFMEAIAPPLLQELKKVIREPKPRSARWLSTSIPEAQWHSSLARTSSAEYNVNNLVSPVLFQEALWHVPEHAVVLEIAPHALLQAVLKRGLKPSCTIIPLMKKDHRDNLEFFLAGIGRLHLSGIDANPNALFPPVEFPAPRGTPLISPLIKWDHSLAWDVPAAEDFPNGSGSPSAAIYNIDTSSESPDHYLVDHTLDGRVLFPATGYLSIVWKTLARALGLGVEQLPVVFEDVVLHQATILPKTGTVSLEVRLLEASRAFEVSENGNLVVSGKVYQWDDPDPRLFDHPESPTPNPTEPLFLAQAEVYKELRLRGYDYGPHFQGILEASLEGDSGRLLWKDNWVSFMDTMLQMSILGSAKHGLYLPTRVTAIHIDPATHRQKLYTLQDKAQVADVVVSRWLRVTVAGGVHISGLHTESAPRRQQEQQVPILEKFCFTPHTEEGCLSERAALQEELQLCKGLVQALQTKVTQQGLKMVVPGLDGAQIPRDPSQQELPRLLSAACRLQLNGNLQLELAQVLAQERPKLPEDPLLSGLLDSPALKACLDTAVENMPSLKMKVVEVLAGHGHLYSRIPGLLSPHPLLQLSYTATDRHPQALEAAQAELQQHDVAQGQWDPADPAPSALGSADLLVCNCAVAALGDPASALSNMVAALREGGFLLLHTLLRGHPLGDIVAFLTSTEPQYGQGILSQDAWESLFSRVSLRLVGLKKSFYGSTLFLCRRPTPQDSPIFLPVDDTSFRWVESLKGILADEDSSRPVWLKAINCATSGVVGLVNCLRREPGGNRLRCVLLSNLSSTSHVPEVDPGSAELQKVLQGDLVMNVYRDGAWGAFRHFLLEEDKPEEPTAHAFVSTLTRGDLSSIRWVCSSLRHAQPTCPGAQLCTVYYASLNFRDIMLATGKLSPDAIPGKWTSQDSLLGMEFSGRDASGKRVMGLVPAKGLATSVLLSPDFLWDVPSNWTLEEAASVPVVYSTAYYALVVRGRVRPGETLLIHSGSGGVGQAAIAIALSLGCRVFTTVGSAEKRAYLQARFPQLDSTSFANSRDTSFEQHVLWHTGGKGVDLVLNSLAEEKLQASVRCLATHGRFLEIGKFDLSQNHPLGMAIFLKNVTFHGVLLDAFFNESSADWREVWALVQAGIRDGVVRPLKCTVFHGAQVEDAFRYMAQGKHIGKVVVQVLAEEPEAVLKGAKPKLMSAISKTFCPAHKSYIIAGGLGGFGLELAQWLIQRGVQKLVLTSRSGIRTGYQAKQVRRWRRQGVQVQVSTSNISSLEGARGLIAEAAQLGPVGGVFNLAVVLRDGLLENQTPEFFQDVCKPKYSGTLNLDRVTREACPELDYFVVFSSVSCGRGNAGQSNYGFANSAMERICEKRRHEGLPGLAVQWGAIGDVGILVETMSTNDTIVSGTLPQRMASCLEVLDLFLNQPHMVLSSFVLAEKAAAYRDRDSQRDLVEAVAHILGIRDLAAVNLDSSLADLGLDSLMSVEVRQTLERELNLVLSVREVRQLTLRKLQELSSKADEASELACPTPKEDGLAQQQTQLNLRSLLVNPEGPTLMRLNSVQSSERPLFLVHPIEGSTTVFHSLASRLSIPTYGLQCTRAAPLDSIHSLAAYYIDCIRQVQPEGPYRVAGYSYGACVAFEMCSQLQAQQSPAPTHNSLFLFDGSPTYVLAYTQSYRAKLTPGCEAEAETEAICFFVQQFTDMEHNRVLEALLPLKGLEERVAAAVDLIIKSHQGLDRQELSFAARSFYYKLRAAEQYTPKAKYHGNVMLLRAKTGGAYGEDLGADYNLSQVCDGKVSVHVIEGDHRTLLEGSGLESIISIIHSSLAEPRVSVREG", "assay": "inhibition of human FAS-TE enzyme activity – biochemical, kinetic fluorescence intensity, dose response (AID 624326);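 further: rate of fluorescence rise from hydrolysis of a fluorogenic O-methyl fluorescein ester substrate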", "assay_type": "functional"}, "[7]": {"molecular_target": "T2, Fatty acid synthase", "assay": "inhibition of human FAS-TE enzyme activity – biochemical, endpoint fluorescence intensity, uHTS hits, dose response (AID 624327);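 further: fluorescence from hydrolysis of an O-methyl fluorescein acyl ester substrate by the enzyme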", "assay_type": "functional"}, "[8]": {"assay": "HIV-1 AD8 envelope cell-cell fusion blockers – cherry-pick, dose response (AID 652062);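 further: potency is for inhibitors of fusion seen as a drop in luminescence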", "assay_type": "functional, cell-based"}, "[9]": {"assay": "blockers of HIV-1 envelope-mediated cell-cell fusion – cherry-pick, dose response (AID 652057)", "assay_type": "functional, cell-based"}, "[10]": {"assay": "off-target signal loss in HeLa-CEM21 co-culture – HeLa F-luc CTL cells, cherry-picked, counter-screen for HIV-1 Env fusion inhibitor project, dose response (AID 652040);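 further: potency for signal decrease marking cytotoxic or nonspecific inhibition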", "assay_type": "functional, cell-based"}, "[11]": {"assay": "blockers of HIV-1 ZM109 envelope-driven cell-cell fusion – HeLa effector, CEM target cells, luciferase, cherry-pick, dose response (AID 652058)", "assay_type": "functional, cell-based"}, "[12]": {"molecular_target": "T3, Polyadenylate-binding protein 1 (Homo sapiens, UniProt P11940)", "T3 sequence (P11940 whole entry, the tested form may be a part)": "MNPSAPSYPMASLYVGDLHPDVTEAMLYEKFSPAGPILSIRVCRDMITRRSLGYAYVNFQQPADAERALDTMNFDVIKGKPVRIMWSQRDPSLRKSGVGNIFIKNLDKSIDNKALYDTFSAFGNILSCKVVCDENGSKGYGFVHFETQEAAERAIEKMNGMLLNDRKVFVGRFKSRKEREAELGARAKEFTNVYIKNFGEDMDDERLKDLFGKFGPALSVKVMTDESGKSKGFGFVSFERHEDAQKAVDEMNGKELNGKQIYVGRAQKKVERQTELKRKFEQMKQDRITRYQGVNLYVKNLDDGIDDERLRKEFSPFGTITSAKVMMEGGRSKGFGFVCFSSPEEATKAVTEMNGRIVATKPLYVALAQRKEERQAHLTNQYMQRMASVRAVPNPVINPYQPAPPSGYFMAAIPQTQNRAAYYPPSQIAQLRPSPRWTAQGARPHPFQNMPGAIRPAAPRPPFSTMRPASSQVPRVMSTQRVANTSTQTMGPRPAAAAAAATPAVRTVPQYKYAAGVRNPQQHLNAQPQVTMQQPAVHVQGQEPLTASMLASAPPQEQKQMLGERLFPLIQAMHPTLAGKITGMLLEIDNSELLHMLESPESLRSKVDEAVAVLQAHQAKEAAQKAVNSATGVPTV", "assay": "MLLE domain peptide-binding blockers, IC50 – biochemical, fluorescence polarization, FITC-PAM2 peptide, dose response (AID 602259)", "assay_type": "functional", "details": "read-out: IC50_Mean"}, "[13]": {"molecular_target": "T3, Polyadenylate-binding protein 1", "assay": "MLLE binding blockers, Cy5 peptide tracer – biochemical, fluorescence polarization, Cy5-PAM2 peptide, secondary, miRNA deadenylation inhibitor project, dose response (AID 602260)", "assay_type": "functional", "details": "read-out: IC50_Mean"}, "[14]": {"molecular_target": "Heat shock protein HSP 90-alpha (Homo sapiens, UniProt P07900)", "assay_type": "functional, organism-based"}, "[15]": {"assay": "cells", "assay_type": "functional, cell-based"}, "[16]": {"assay": "cells", "assay_type": "functional, cell-based", "remark": "listed apart in the source"}, "[17]": {"assay": "intracellular Trypanosoma cruzi inhibitors in host cells – cell-based, plate reader, cherry-pick samples, set 3, dose response (AID 651818);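 further: compounds incubated with infected cells for about four days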", "assay_type": "functional"}, "[18]": {"assay": "Luminescence Cell-Based Dose Retest to Confirm Inhibitors of Cancer Stem Cells. [Related pubchem assays (depositor defined):AID2717, AID2721]", "assay_type": "functional", "details": "Homo sapiens"}, "[19]": {"assay": "alpha-synuclein stem-loop luciferase translation blockers – H4 neuroglioma cells, luminescence, confirmation (AID 1988)", "assay_type": "functional, cell-based"}, "[20]": {"assay": "luciferase reporter signal suppression in cells – H4 neuroglioma cells, luminescence, dose response (AID 1990)", "assay_type": "functional, cell-based"}, "[21]": {"assay": "Luminescence Cell-Based Dose Response HTS to Identify Inhibitors of 5'UTR Stem-Loop Driven Prion Protein mRNA Translation in H4 Neuroglioblastoma Cells. [Related pubchem assays: 1827 (Project Summary), 1813 (Primary HTS)]", "assay_type": "functional"}},
  "note": "Active and inactive are the calls of the source.",
  "data": [
    {"smiles": "Cc1ccc(CNC(=O)CSCc2cccc(F)c2)cc1", "values": [
      {"measurement": "EC50", "setting": "[1]", "value": "> 38 µM (not active)"},
      {"measurement": "EC50", "setting": "[2]", "value": "> 150 µM (inactive)"}
    ]},
    {"smiles": "CCOC(=O)c1sc(N2C(=O)C(O)=C(C(=O)c3ccco3)C2c2cccc(Cl)c2)nc1C", "note": "(centres undefined)", "values": [
      {"measurement": "EC50", "setting": "[3]", "value": "> 150 µM (not active)"},
      {"measurement": "EC50", "setting": "[1]", "value": "1.41 µM (active)"},
      {"measurement": "EC50", "setting": "[2]", "value": "30.5 µM (active)"},
      {"measurement": "EC50", "setting": "[4]", "value": "7.41 µM (active)"},
      {"measurement": "EC50", "setting": "[5]", "value": "8.62 µM (active)"}
    ]},
    {"smiles": "O=[N+]([O-])c1cccc(NC(=S)N2CCc3ccccc3C2)c1", "values": [
      {"measurement": "IC50", "setting": "[6]", "value": "10.6 µM (active)"},
      {"measurement": "IC50", "setting": "[7]", "value": "16.5 µM (active)"}
    ]},
    {"smiles": "CC[C@@]12C(=O)N(c3ccc(C)cc3)C(=O)N1[C@H](c1ccc(OC)cc1)[C@@H]1C(=O)N(C(C)(C)C)C(=O)[C@@H]12", "values": [
      {"measurement": "AC50", "setting": "[8]", "value": "3.09 µM (active)"},
      {"measurement": "AC50", "setting": "[9]", "value": "2.37 µM (active)"},
      {"measurement": "AC50", "setting": "[10]", "value": "4.94 µM (active)"},
      {"measurement": "AC50", "setting": "[11]", "value": "2.86 µM (active)"}
    ]},
    {"smiles": "CC(C)(C)c1ccc(-n2ncc3c2CCCC3NC(=O)CN2CCCC2=O)cc1", "note": "(centres undefined)", "values": [
      {"measurement": "AC50", "setting": "[10]", "value": "> 32 µM (inactive)"}
    ]},
    {"smiles": "N=C(N)SCP(=O)(c1ccccc1)c1ccccc1", "values": [
      {"measurement": "IC50", "setting": "[12]", "value": "> 66 µM (inactive)"},
      {"measurement": "IC50", "setting": "[13]", "value": "> 66 µM (inactive)"}
    ]},
    {"smiles": "COc1ccc(CCC(C)NCc2cc(OC)cc(OC)c2)cc1", "note": "(centres undefined)", "values": [
      {"measurement": "AC50", "setting": "[8]", "value": "14.1 µM (active)"},
      {"measurement": "AC50", "setting": "[9]", "value": "6.55 µM (active)"},
      {"measurement": "AC50", "setting": "[10]", "value": "7.92 µM (active)"},
      {"measurement": "AC50", "setting": "[11]", "value": "9.46 µM (active)"}
    ]},
    {"smiles": "O=C(c1ccc(Cl)c([N+](=O)[O-])c1)N1CCN(S(=O)(=O)c2ccc(Cl)cc2)CC1", "values": [
      {"measurement": "IC50", "setting": "[6]", "value": "16.2 µM (active)"},
      {"measurement": "IC50", "setting": "[7]", "value": "14.2 µM (active)"}
    ]},
    {"smiles": "O=C(O)c1cccc2c1Cc1cc([N+](=O)[O-])ccc1-2", "values": [
      {"measurement": "AC50", "setting": "[14]", "value": "0.357 µM (active)"}
    ]},
    {"smiles": "O=C(N/N=C/C(Br)=C\\c1ccccc1)c1ccco1", "values": [
      {"measurement": "EC50", "setting": "[15]", "value": "> 350 µM (not active)"},
      {"measurement": "EC50", "setting": "[16]", "value": "13.8 µM (active)"}
    ]},
    {"smiles": "C[C@@H]1CN([C@H](C)CO)C(=O)c2cc(NS(=O)(=O)c3ccc(Cl)cc3)ccc2O[C@@H]1CN(C)Cc1ccc(Cl)c(Cl)c1", "values": [
      {"measurement": "AC50", "setting": "[17]", "value": "4.7 µM (active)"}
    ]},
    {"smiles": "C[C@H](CO)N1C[C@H](C)[C@@H](CN(C)CC2CCCCC2)Oc2c(NS(=O)(=O)c3cccs3)cccc2C1=O", "values": [
      {"measurement": "AC50", "setting": "[17]", "value": "19.7 µM (active)"}
    ]},
    {"smiles": "C[C@@H]1CN([C@@H](C)CO)C(=O)Cc2cc(NC(=O)Nc3ccc(C(F)(F)F)cc3)ccc2O[C@@H]1CN(C)CC1CCCCC1", "values": [
      {"measurement": "AC50", "setting": "[17]", "value": "1.93 µM (active)"}
    ]},
    {"smiles": "Cc1noc(C)c1S(=O)(=O)Nc1ccc2c(c1)C(=O)N([C@H](C)CO)C[C@H](C)[C@H](CN(C)Cc1ccc(C(=O)Nc3ccccc3N)cc1)O2", "values": [
      {"measurement": "AC50", "setting": "[17]", "value": "3.11 µM (active)"}
    ]},
    {"smiles": "C[C@@H]1CN([C@H](C)CO)C(=O)Cc2cc(NC(=O)Cc3cn(C)c4ccccc34)ccc2O[C@H]1CN(C)Cc1ccc(Oc2ccccc2)cc1", "values": [
      {"measurement": "AC50", "setting": "[17]", "value": "3.74 µM (active)"}
    ]},
    {"smiles": "COc1ccc(NC(=O)Nc2cccc3c2O[C@@H](CN(C)Cc2ccc(C(=O)Nc4ccccc4N)cc2)[C@H](C)CN([C@H](C)CO)C3=O)cc1", "values": [
      {"measurement": "AC50", "setting": "[17]", "value": "2.41 µM (active)"}
    ]},
    {"smiles": "COc1ccc(NC(=O)Nc2ccc3c(c2)C(=O)N([C@H](C)CO)C[C@H](C)[C@H](CN(C)Cc2ccc(-c4ccccc4)cc2)O3)cc1", "values": [
      {"measurement": "AC50", "setting": "[17]", "value": "4.77 µM (active)"}
    ]},
    {"smiles": "C[C@H](CO)N1C[C@H](C)[C@H](CN(C)Cc2ccc3c(c2)OCO3)Oc2ccc(NC(=O)Nc3ccccc3)cc2C1=O", "values": [
      {"measurement": "AC50", "setting": "[17]", "value": "8.77 µM (active)"}
    ]},
    {"smiles": "C[C@H](CO)N1C[C@H](C)[C@H](CN(C)Cc2ccc(C(=O)Nc3ccccc3N)cc2)Oc2ccc(NC(=O)Nc3ccccc3)cc2CC1=O", "values": [
      {"measurement": "AC50", "setting": "[17]", "value": "2.98 µM (active)"}
    ]},
    {"smiles": "Cc1ccc(S(=O)(=O)N(C)C[C@H]2Oc3cc(-c4cccc(F)c4)ccc3S(=O)(=O)N([C@@H](C)CO)C[C@H]2C)cc1", "values": [
      {"measurement": "AC50", "setting": "[8]", "value": "6.67 µM (active)"},
      {"measurement": "AC50", "setting": "[9]", "value": "1.47 µM (active)"}
    ]},
    {"smiles": "O=C(CNC(=O)C(c1ccccc1)c1ccccc1)N/N=C/c1ccc(O)cc1O", "values": [
      {"measurement": "AC50", "setting": "[18]", "value": "2.59 µM (active)"},
      {"measurement": "EC50", "setting": "[15]", "value": "17.5 µM (active)"},
      {"measurement": "EC50", "setting": "[16]", "value": "> 350 µM (not active)"}
    ]},
    {"smiles": "Cc1cc(C)nc(N/N=C/C2=C(O)CC(c3ccccc3)CC2=O)n1", "note": "(centres undefined)", "values": [
      {"measurement": "EC50", "setting": "[19]", "value": "11.3 µM (active)"},
      {"measurement": "EC50", "setting": "[20]", "value": "14.7 µM (active)"},
      {"measurement": "EC50", "setting": "[15]", "value": "> 350 µM (not active)"},
      {"measurement": "EC50", "setting": "[16]", "value": "> 350 µM (not active)"},
      {"measurement": "EC50", "setting": "[21]", "value": "14.5 µM (active)"}
    ]}
  ]
}
